Consider four compounds from PMC5342230, “ITC-derived binding affinity may be biased due to titrant (nano)-aggregation. Binding of halogenated benzotriazoles to the catalytic domain of human protein kinase CK2” (PLoS ONE, 2017).

The target of data set [1] is T1, catalytic subunit of human protein kinase CK2 (hCK2α) (Homo sapiens, UniProt P68400).
T1 construct: made in house
Description: Microscale Thermophoresis (MST), global fit of two independent binding sites. The following applies: for Kd: global fit of 6 pseudo-titrations. How it is done:
For MST experiments the protein sample additionally contained 5 mM β-mercaptoethanol to prevent sticking of protein to capillaries.
(§1) It should be stressed that the solvent composition of protein and ligand samples were always identical, so that the protein and ligand concentrations were the only variable factors.
The concentration of the labeled protein was kept constant at ~100 nM, while the ligand to protein concentration ratio was in the range of 0.01 to 10^5 nM. The samples were loaded into K002 Monolith™ NT.115 Standard Treated Capillaries, which after 10 min incubation time were analyzed using the Monolith NT.115 (NanoTemper Technologies). […] The numerical model was based on the cubic equation describing the concentration-dependent equilibrium of the apo form of the protein, free ligand, and their 1:1 and 1:2 complexes K1⋅K2⋅[L]^3+(K1+K1⋅K2⋅(2⋅P0-L0))⋅[L]^2+(1+K1⋅(P0-L0))⋅[L]=L0 (1) where P0 and L0 are the total concentrations of the protein and ligand, respectively; K1 and K2 are the […] for 1:1 and 1:2 complexes; and [L] is the concentration of the free ligand. The above equation can be resolved by roots against [L]
Concentrations of 1:1 and 1:2 complexes equal K1∙[P]∙[L] and K1∙K2∙[P]∙[L]^2, respectively. The model was implemented in Origin 9.0 package (www.originlab.com). Dissociation constants, K1 and K2, were estimated globally for a series of 6 MST pseudo-titration experiments, while contributions of three protein forms (i.e. apo, and 1:1 and 1:2 complexes) to the observed MST signal were fitted individually for each experiment (S1 Fig).

Data set [2] deals with T1, catalytic subunit of human protein kinase CK2 (hCK2α). Description: ITC (hCK2α titrated with the ligand), one type of binding sites. The following applies: ligand as titrant, 25°C. The method, then:
as §1
(§2) All ITC measurements were carried out at 25°C with the Nano ITC calorimeter (TA Instruments), using 250 rpm stirring and 1000 s delay between succeeding injections to the sample cell (950 μl). The first “technical” injection of a reduced volume (4–5 μl) was followed by 12 injections of 20 μl, however 16x15 μl or 10x25 μl schemes were occasionally used. The concentration of reagents varied depending on their affinities and experiment type. Thus 20–200 μM ligand solution was used as the titrant, but only 4–10 μM when placed in the sample cell. Accordingly, the sample cell was filled with 4–30 μM hCK2α solution, while 20–40 μM protein solution was placed in the syringe. For each ligand at least two titration experiments were done with different reagent concentrations, and occasionally with optimized injection volume. […] The resulting data were processed with the standard NanoAnalyze software package (version 3.5.0), assuming the model of one type of binding sites of the apparent stoichiometry close to 1:1. The automatically adjusted integration regions were used to minimize the impact of researcher’s arbitrary decision. The uncertainty of all determined values was estimated as the half-width of 67% confidence interval.

The target is the same in data set [3]. Description: Reverse ITC (ligand titrated with hCK2α), one type of binding sites. The following applies: protein as titrant, 25°C. How it is done: as §1, §2
For data set [4] the target is unchanged. The data set is described as follows: Reverse ITC with MST-derived Kd (two types of binding sites, Kd constrained). The following applies: for ΔG1 / ΔG2 / Kd: constrained based on the MST-derived binding affinities; for ΔH1 / ΔS1 / ΔH2 / ΔS2: reverse ITC, two-site model, Kd from MST; for ΔH1 / ΔS1: strong site; for ΔH2 / ΔS2: weak site. The method, then: All ITC measurements were carried out at 25°C with the Nano ITC calorimeter (TA Instruments), using 250 rpm stirring and 1000 s delay between succeeding injections to the sample cell (950 μl). The first “technical” injection of a reduced volume (4–5 μl) was followed by 12 injections of 20 μl, however 16x15 μl or 10x25 μl schemes were occasionally used. The concentration of reagents varied depending on their affinities and experiment type. Thus 20–200 μM ligand solution was used as the titrant, but only 4–10 μM when placed in the sample cell. Accordingly, the sample cell was filled with 4–30 μM hCK2α solution, while 20–40 μM protein solution was placed in the syringe. For each ligand at least two titration experiments were done with different reagent concentrations, and occasionally with optimized injection volume. […] The automatically adjusted integration regions were used to minimize the impact of researcher’s arbitrary decision. The uncertainty of all determined values was estimated as the half-width of 67% confidence interval.

Data set [5] in a line: Dynamic light scattering (DLS/SLS) of ligand nano-aggregates. The class given is physicochemical. The following applies: for formation of nano-aggregates (DLS autocorrelation function): 1 mM ligand, 25°C, buffer with 2% DMSO. How it is done: All DLS experiments were carried out at 25°C with the DynaPro NanoStar 192-DPN apparatus (Wyatt Technology) equipped with 661 nm laser. The autocorrelation function for the light scattered by 5-BrBt or TBBt buffered solution placed in Eppendorf disposable cuvettes (50–2000 μl) was measured at various solute concentrations in the range of 0.5 μs– 0.1 s, and further decomposed to the distribution of particle size (ranging from 0.18 nm to 2.5 μm) using Dynamics software (Wyatt Technology, ver. 7.0.2.7). Solutions with 2% (v/v) DMSO content were prepared in 25 mM Tris-HCl (pH 8, 0.5 M NaCl) filtered with 0.22 μm pore size syringe filter. All samples were centrifuged (9000 g) for 3 minutes immediately before the experiment. For each sample a series of at least 30 repetitions, 10 s each, has been collected, and those with abnormally high SOS function and/or with highly fluctuating SLS signal were removed from the analysis. All remaining data have been averaged to obtain the autocorrelation function (ACF) of a reasonable quality. This procedure was found indispensable for diluted TBBt solutions, in which large aggregates have rarely scattered light crossing the laser beam. Consequently, extreme fluctuations of ACF precluded direct analysis of the time-evolution of TBBt aggregates. However, the raw SLS signal was found applicable to estimate the rate of aggregate disintegration.

A short description of data set [6]: UV-VIS spectroscopy, deviation from Lambert-Beer law (ligand aggregation). The format is physicochemical. The method, then: The absorption spectra (200–500 nm) were collected at 25°C using Varian Cary 50 UV-VIS spectrophotometer equipped with 1 cm quartz cells. The initial buffer solution was manually titrated with the 851 μM TBBt solution to record spectra for increasing solute concentration. For each sample UV-VIS spectrum was collected four times, every 20 s including 15 s acquisition time, starting 5 s after solute dilution. The changes in the absorption spectrum of 40 μM TBBt sample, prepared just before the experiment, were additionally tracked for an hour to follow possible disintegration of soluble aggregates.

Details of data set [7]: method as in http://www.sigmaaldrich.com/catalog/product/sigma/t0826. To be noted: ref http://www.sigmaaldrich.com/catalog/product/sigma/t0826; cited from earlier work.
The target of data set [8] is T1, catalytic subunit of human protein kinase CK2 (hCK2α). Description: Reverse ITC (ligand titrated with hCK2α), one type of binding sites. The following applies: strong site.
Setting [9] is: strong site, read-out: Kd1 (strong binding site).
[10] abbreviates: weak site, read-out: Kd2 (weak binding site).

The structures appear in SMILES notation. ≈ marks a conversion by molar mass, not a printed value. Where “and” joins values, the source holds several entries; their conditions need not be identical. Equal entries are not always repeated. Marks after values point to notes of the source that are not given here.

T1 sequence (P68400 whole entry): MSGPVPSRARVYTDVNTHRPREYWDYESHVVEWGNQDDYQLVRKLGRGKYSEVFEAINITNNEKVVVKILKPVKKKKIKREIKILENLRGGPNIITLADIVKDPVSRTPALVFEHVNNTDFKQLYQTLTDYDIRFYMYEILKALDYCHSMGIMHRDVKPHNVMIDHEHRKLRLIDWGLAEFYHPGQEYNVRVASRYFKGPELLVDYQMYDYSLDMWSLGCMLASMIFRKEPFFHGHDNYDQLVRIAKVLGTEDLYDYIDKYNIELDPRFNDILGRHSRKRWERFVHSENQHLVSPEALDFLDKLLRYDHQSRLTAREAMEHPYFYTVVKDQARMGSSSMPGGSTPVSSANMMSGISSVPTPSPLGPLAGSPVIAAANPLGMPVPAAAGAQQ

Regarding `Brc1cc2nn[nH]c2cc1Br` [5,6-Br2Bt, 5,6-dibromobenzotriazole], the ΔG1 in data set [1] (strong site) was -9.68 ± 0.14 kcal/mol. Besides, the Kd in data set [1] (setting [9]) is 81 ± 22 nM. Moreover, the ΔG2 in data set [1] (weak site) was -7.31 ± 0.072 kcal/mol. In data set [1] (setting [10]), the Kd came to 4400 ± 500 nM. In data set [2], this compound yielded a Kd of 1170 ± 270 nM, a ΔG of -8.1 ± 0.12 kcal/mol, a ΔH of -15.1 ± 0.48 kcal/mol and a ΔS of -97 ± 8 J/mol/K. In data set [3], this compound yielded a Kd of 46 ± 10 nM, a ΔG of -10 ± 0.12 kcal/mol, a ΔH of -17 ± 0.48 kcal/mol and a ΔS of -98 ± 6 J/mol/K. For the same compound, in data set [4], the ΔG1 is on record as -40.5 ^x kJ/mol, the ΔG2 is -30.6 ^x kJ/mol, the ΔH1 was -18.6 ± 3.11 kcal/mol and the ΔS1 is -126 ± 43 J/mol/K. In data set [4], the ΔH2 is 2.63 ± 8.13 kcal/mol and the ΔS2 was 140 ± 114 J/mol/K. Further, the Kd in data set [4] (read-out: Kd1) came to 81 nM. In data set [4] (read-out: Kd2), the Kd turned out to be 4400 nM.

For the compound `Brc1c(Br)c(Br)c2[nH]nnc2c1Br` [TBBt, tetrabromobenzotriazole], in data set [5], the “formation of nano-aggregates (DLS autocorrelation function)” value was “forms nano-aggregates”. Further, the radius of nano-aggregates in data set [5] (DLS, 1 mM down to 20 μM) was ~ 100 nm and 100 nm. The “τ, decay of the aggregate population (raw SLS signal)” value in data set [5] (after rapid dilution of 500 μM sample) came out at 460 ± 40 s. In data set [6] (40 μM solution, tracked for an hour), the “τ, increase of population of the monomeric form (absorption at 291 nm)” value was 670 ± 40 s. Moreover, the “upper limit of ligand concentration at which monomeric form predominates” value in data set [6] (UV absorbance, deviation from Lambert-Beer law) fell in the range of 20 to 30 µM. Besides, the “solubility in pure DMSO” value in data set [7] is 65 mM (≈ 28.3 mg/mL).

`Brc1cc2[nH]nnc2c(Br)c1Br` [4,5,6-Br3Bt, 4,5,6-tribromobenzotriazole]: the ΔG1 in data set [1] (strong site) was -9.66 ± 0.17 kcal/mol. For the same compound, the Kd in data set [1] (setting [9]) came out at 83 ± 29 nM. In data set [1] (weak site), this compound had a ΔG2 of -7.29 ± 0.17 kcal/mol. The Kd in data set [1] (setting [10]) was 4600 ± 1400 nM. Also, in data set [2], the Kd was 990 ± 270 nM, the ΔG was -8.2 ± 0.14 kcal/mol, the ΔH was -8.37 ± 0.48 kcal/mol and the ΔS is recorded as -2 ± 5 J/mol/K. Besides, in data set [3], the Kd turned out to be 42 ± 17 nM, the ΔG is -10.1 ± 0.19 kcal/mol, the ΔH is -9.56 ± 0.24 kcal/mol and the ΔS amounted to 9 ± 4 J/mol/K. In data set [4], the ΔG1 is recorded as -40.4 ^x kJ/mol, the ΔG2 is listed as -30.5 ^x kJ/mol, the ΔH1 is -10.5 ± 0.48 kcal/mol and the ΔS1 is -12 ± 9 J/mol/K. In data set [4], this compound gave a ΔH2 of 0.48 ± 2.2 kcal/mol and a ΔS2 of 109 ± 31 J/mol/K. Besides, the Kd in data set [4] (read-out: Kd1) amounted to 83 nM. Further, in data set [4] (read-out: Kd2), the Kd was 4600 nM. Also, the “entropic contribution to binding” value in data set [8] is on record as “favorable entropic contribution”.

Turning to `Brc1ccc2nn[nH]c2c1` [5-BrBt], the ΔG1 in data set [1] (strong site) was -9.01 ± 0.072 kcal/mol. The Kd in data set [1] (setting [9]) came out at 246 ± 36 nM. The compound further returned a ΔG2 in data set [1] (weak site) of -7.1 ± 0.096 kcal/mol. The Kd in data set [1] (setting [10]) is 6300 ± 1000 nM. Moreover, in data set [2], the Kd came out at 310 ± 89 nM, the ΔG was -8.87 ± 0.14 kcal/mol, the ΔH is -16.3 ± 0.72 kcal/mol and the ΔS was -102 ± 9 J/mol/K. In data set [3], this compound gave a Kd of 294 ± 73 nM, a ΔG of -8.91 ± 0.12 kcal/mol, a ΔH of -16.7 ± 0.72 kcal/mol and a ΔS of -110 ± 10 J/mol/K. In addition, in data set [4], the ΔG1 is listed as -37.7 ^x kJ/mol, the ΔG2 was -29.7 ^x kJ/mol, the ΔH1 is -17.4 ± 1.2 kcal/mol and the ΔS1 was -118 ± 15 J/mol/K. Further, in data set [4], the ΔH2 was determined as 1.7 ± 5.5 kcal/mol and the ΔS2 amounted to 123 ± 77 J/mol/K. In addition, in data set [4] (read-out: Kd1), the Kd was found to be 246 nM. Further, in data set [4] (read-out: Kd2), the Kd amounted to 6300 nM. The “formation of nano-aggregates (DLS autocorrelation function)” value in data set [5] is recorded as “no such effect was observed”. Besides, in data set [6] (control experiment), the “plot of concentration versus absorbance (Lambert-Beer law)” value is on record as “remained linear”.
